This note sets out measurements from US20210315893A1 (Galapagos NV, priority 2017, published 2021).

Usually EC50 stands for the concentration giving half of the maximal effect.

For assay [1], the target named is T1, human GPCR sphingosine 1-phosphate receptor 2 (Homo sapiens, UniProt O95136).
T1 construct: host or cells: CHO
Nature of the assay: S1PR2 antagonist Ca2+ flux assay. It counts as cell-based. To be noted: antagonist mode, CHO-S1PR2 cells, S1P at EC80, Ca2+ fluorescence; read-out: S1P2 EC50 (nM), S1P2 antagonist EC50. Here is the method:
Triggering of S1PR2 by administration of Sphingosine-1-phosphate leads to a transient increase in intracellular Ca^2+. The Ca^2+ flux assays are measuring the release of Ca^2+ intracellularly by use of a Ca^2+ sensitive fluorescent dye. The assay is firstly run in agonist mode (incubation of compounds alone) to ensure that the Ca^2+ released measured is not caused by the test compound having an agonistic effect. Then the assay is continued in antagonist mode (Sphingosine-1-Phosphate added to incubated medium containing the test compounds).
CHO cells stably overexpressing human GPCR sphingosine 1-phosphate receptor 2 (CHO-S1PR2 Perkin Elmer; ES-594-A) are seeded from a frozen stock in 384 wells sterile microplates (50 μL; 7,500 cells/well) and are incubated overnight at 37° C. and 5% CO2. The next day cells are washed twice with starvation medium (F-12 Ham's medium containing 0.1% BSA (Fatty acid free: FAF)) and left in 25 μL starvation medium for 1 h at 37° C., 5% CO2. After this starvation cells are incubated with 25 μL buffer containing the Ca^2+-sensitive fluorescent dye (0.5 mg Fluo8+125 mg Allura Red in 100 mL of 1% DMSO, in HBSS+20 mM Hepes+5 mM probenecid). The cells are incubated for an additional 1 h after which 10 μL compounds, diluted in HBSS buffer with 20 mM Hepes and 0.1% BSA (FAF), are added to the cells and intracellular Ca2+ changes are immediately measured by reading fluorescence during 3 min (FDSS/pCELL reader). The ratio of the maximal fluorescence over the background fluorescence before compound injection is used to determine compound response.
After readout of the agonist activity, the plates are incubated for 15 min at 37° C. and 5% CO2. Then, cells are stimulated with 10 μL Sphingosine-1-Phosphate (S1P) (Avanti Polar lipids-860492P) at its EC80 concentration. Intracellular Ca2+ changes are immediately measured by reading fluorescence during 3 min (FDSS/pCELL reader). The ratio of the maximal fluorescence over the background fluorescence before compound injection is used to determine compound response.
The obtained ratio's for agonist and antagonist readout were normalized versus vehicle and EC 100 of S1P ascontrols for agonist mode and versus vehicle and […]. From these normalized data EC50 of the compounds are derived.
A general note: Calcium assays in cells follow changes in intracellular calcium, usually with a dye or a luminescent sensor.

The target of assay [2] is T2, S1PR2 (Homo sapiens, UniProt O95136).
T2 construct: expressed in transfected cells
T2 sequence (O95136 whole entry): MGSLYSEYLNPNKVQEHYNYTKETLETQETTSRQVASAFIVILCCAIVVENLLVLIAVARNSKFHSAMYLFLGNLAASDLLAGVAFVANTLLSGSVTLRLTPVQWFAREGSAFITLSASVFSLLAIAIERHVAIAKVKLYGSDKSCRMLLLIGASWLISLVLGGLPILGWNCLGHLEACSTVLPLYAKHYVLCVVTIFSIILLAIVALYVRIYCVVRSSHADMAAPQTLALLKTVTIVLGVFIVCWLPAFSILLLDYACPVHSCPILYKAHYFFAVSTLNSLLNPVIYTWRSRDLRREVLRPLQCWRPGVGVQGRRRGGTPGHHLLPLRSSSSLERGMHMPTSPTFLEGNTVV
Nature of the assay: S1PR2 binding assay (competition with radioactively labeled S1P, SpA). The settings on record: membranes from stable cell line over expressing S1PR2, SpA beads; read-out: S1P2 EC50 (nM), S1PR2 binding EC50. As to the method:
The following assay can be used for determination of S1PR2 binding. The binding assay measures the potential to compete with radioactively labeled S1P for binding to the receptor.
The assay is performed in a96 well plate where the following reagents are added. First 50 μL compound is added into the assay plate, followed by addition of 100 μL ofa mixture consisting of membrane and Scintillation proximity Assay (SpA) beads [mixture consists […] membranes derived from stable cell line over expressing SPR2, 0.5 mg/well Polyvinyltoluene-Wheat Germ-Agglutinin (PVT-WGA) beads (Perkin Elmer, RPNQOO1)]. All components are diluted in assay buffer containing 20 mM Tris pH 7.5; 10 mM MgCl2; 100 mM NaCl; 0.4% BSA FAF; 1 mM Na3VO4) and incubated for 15 min until addition to the assay plate. Subsequently, 50 ul of radioactively labeled S1P is added to the wells (Sphingosine, D-erythro-[3-3H] 1-phosphate; ARC; ART0778). After an incubation for 2 h at room temperature, plates are centrifuged at 2000 rpm during 20 min. Plates are read on a Topcount reader (Perkin Elmer) immediately after centrifugation (readout time, 1 min/well).

T1 sequence (O95136 whole entry): as above

Consider `CC(C)(C)NC(=O)Cn1nc(Cc2nc3cc(Cl)c(OC(F)(F)F)cc3[nH]2)c2c(c1=O)CCCC2` [Compound 147], for which the EC50 is 1380 nM in assay [1] and 1090 nM in assay [2].
Consider `CN(C)C(=O)C1CCN(C(=O)Cn2nc(Cc3nc4cc(OCC(F)F)c(C#N)cc4[nH]3)c3ccccc3c2=O)CC1` [Compound 236, 1-[2-[4-[[6-cyano-5-(2,2-difluoroethoxy)-1H-benzimidazol-2-yl]methyl]-1-oxo-phthalazin-2-yl]acetyl]-N,N-dimethyl-piperidine-4-carboxamide], for which the figures for the EC50 in assay [1] and in assay [2] were 958 nM and 2090 nM, respectively.
The matching figures for `O=c1c2ccccc2c(Cc2nc3cc(Cl)c(OC(F)(F)F)cc3[nH]2)nn1CC1CNCCO1` (stereo not shown) [Compound 63, 4-[[5-chloro-6-(trifluoromethoxy)-1H-benzimidazol-2-yl]methyl]-2-(morpholin-2-ylmethyl)phthalazin-1-one]: 4160 nM and 1270 nM.
Take `O=c1c2ccccc2c(Cc2nc3cc(Cl)c(OC(F)(F)F)cc3[nH]2)nn1CC1CCCO1` (stereo not shown) [Compound 34, 4-[[6-chloro-5-(trifluoromethoxy)-1H-benzimidazol-2-yl]methyl]-2-(THF-2-ylmethyl)phthalazin-1-one]: the figures for the EC50 in assay [1] and in assay [2] were 4340 nM and 5190 nM, respectively.
For the molecule `CC1(C)OCC(Cn2nc(Cc3nc4cc(Cl)c(OC(F)(F)F)cc4[nH]3)c3ccccc3c2=O)O1` (stereo not shown) [Compound 38, 4-[[6-chloro-5-(trifluoromethoxy)-1H-benzimidazol-2-yl]methyl]-2-[(2,2-dimethyl-1,3-dioxolan-4-yl)methyl]phthalazin-1-one], the EC50 in assay [1] worked out at 1280 nM; in assay [2] it was 1210 nM.
As for `CCOc1cc2nc(Cc3nn(CC(=O)NS(C)(=O)=O)c(=O)c4ccccc34)[nH]c2cc1F` [Compound 247, 2-[4-[(5-ethoxy-6-fluoro-1H-benzimidazol-2-yl)methyl]-1-oxo-phthalazin-2-yl]-N-methylsulfonyl-acetamide], the figures for the EC50 in assay [1] and in assay [2] were 87.9 nM and 2470 nM, respectively.
On to `CC1(Cn2nc(Cc3nc4cc(Cl)c(OC(F)(F)F)cc4[nH]3)c3ccccc3c2=O)COC1` [Compound 36, 4-[[6-chloro-5-(trifluoromethoxy)-1H-benzimidazol-2-yl]methyl]-2-[(3-methyloxetan-3-yl)methyl]phthalazin-1-one], for which the figures for the EC50 in assay [1] and in assay [2] were ≥ 19900 nM and 100000 nM, respectively.
Consider `N#Cc1cc2[nH]c(Cc3nn(CC(=O)NCC(F)(F)CO)c(=O)c4ccccc34)nc2cc1OCC(F)F` [Compound 228, 2-[4-[[6-cyano-5-(2,2-difluoroethoxy)-1H-benzimidazol-2-yl]methyl]-1-oxo-phthalazin-2-yl]-N-(2,2-difluoro-3-hydroxypropyl)acetamide], for which the EC50 in assay [1] is 21.1 nM; in assay [2], 52.5 nM.
For `N#Cc1cc2[nH]c(Cc3nn(CC(=O)NC(C#N)C4CC4)c(=O)c4ccccc34)nc2cc1OCC(F)F` (stereo not shown) [Compound 226, N-[cyano-(cyclopropyl)methyl]-2-[4-[[6-cyano-5-(2,2-difluoroethoxy)-1H-benzimidazol-2-yl]methyl]-1-oxo-phthalazin-2-yl]acetamide], the EC50 in assay [1] is 66.2 nM; in assay [2], 552 nM.
As to `CCS(=O)(=O)C1CCN(C(=O)Cn2nc(Cc3nc4cc(OCC(F)F)c(C#N)cc4[nH]3)c3ccccc3c2=O)CC1` [Compound 240, 6-(2,2-difluoroethoxy)-2-[[3-[2-(4-ethylsulfonyl-1-piperidyl)-2-oxo-ethyl]-4-oxo-phthalazin-1-yl]methyl]-3H-benzimidazole-5-carbonitrile], the values for the concentration giving a half-maximal response (EC50) in assay [1] and in assay [2] were 345 nM and 1300 nM, respectively.
For the molecule `CC(C)(C)C(O)CNC(=O)Cn1nc(Cc2nc3cc(OCC(F)F)c(C#N)cc3[nH]2)c2ccccc2c1=O` (stereo not shown) [Compound 222, 2-[4-[[6-cyano-5-(2,2-difluoroethoxy)-1H-benzimidazol-2-yl]methyl]-1-oxo-phthalazin-2-yl]-N-(2-hydroxy-3,3-dimethylbutyl)acetamide], the EC50 in assay [1] stood at 26.1 nM; in assay [2], 137 nM.
Take `O=C(O)Cn1nc(Cc2nc3cc(OCC(F)F)c(F)cc3[nH]2)c2ccccc2c1=O` [Compound 130, 2-[4-[[5-(2,2-difluoroethoxy)-6-fluoro-1H-benzimidazol-2-yl]methyl]-1-oxo-phthalazin-2-yl]acetic acid]: the EC50 in assay [1] was found to be 63.8 nM; in assay [2], 2500 nM.
`CN(C)C(=O)CN(C)C(=O)Cn1nc(Cc2nc3cc(OCC(F)F)c(C#N)cc3[nH]2)c2ccccc2c1=O` [Compound 241, 2-[4-[[6-cyano-5-(2,2-difluoroethoxy)-1H-benzimidazol-2-yl]methyl]-1-oxo-phthalazin-2-yl]-N-[2-(dimethylamino)-2-oxo-ethyl]-N-methyl-acetamide]: the EC50 in assay [1] was 47.2 nM; in assay [2] it was 372 nM.
Turning to `N#Cc1cc2[nH]c(Cc3nn(CC(=O)N4CC5(CCOCC5)C4)c(=O)c4ccccc34)nc2cc1OCC(F)F` [Compound 239, 6-(2,2-difluoroethoxy)-2-[[3-[2-(7-oxa-2-azaspiro[3.5]nonan-2-yl)-2-oxo-ethyl]-4-oxo-phthalazin-1-yl]methyl]-3H-benzimidazole-5-carbonitrile], the half-maximal effective concentration (EC50) in assay [1] was 781 nM; in assay [2], 1740 nM.
Take `Cc1cccc2c(=O)n(CC(=O)N3CCOCC3)nc(Cc3nc4cc(OCC(F)F)c(C#N)cc4[nH]3)c12` [Compound 66, 6-(2,2-difluoroethoxy)-2-[[8-methyl-3-(2-morpholino-2-oxo-ethyl)-4-oxo-phthalazin-1-yl]methyl]-3H-benzimidazole-5-carbonitrile]: the EC50 worked out at 18.9 nM in assay [1] and 57.1 nM in assay [2].
As for `O=c1c2ccccc2c(Cc2nc3cc(Cl)c(OC(F)(F)F)cc3[nH]2)nn1CC1CCCN1` (stereo not shown) [Compound 55, 4-[[6-chloro-5-(trifluoromethoxy)-1H-benzimidazol-2-yl]methyl]-2-(pyrrolidin-2-ylmethyl)phthalazin-1-one], the EC50 in assay [1] was 1460 nM; in assay [2] it was 4570 nM.
As for `N#Cc1cc2[nH]c(Cc3nn(CC(=O)NCC(F)(F)F)c(=O)c4ccccc34)nc2cc1OCC(F)F` [Compound 230, 2-[4-[[6-cyano-5-(2,2-difluoroethoxy)-1H-benzimidazol-2-yl)methyl]-1-oxo-phthalazin-2-yl]-N-(2,2,2-trifluoroethyl)acetamide], the EC50 in assay [1] was 408 nM; in assay [2], 1950 nM.
For the molecule `CS(=O)(=O)NC(=O)Cn1nc(Cc2nc3cc(OCC(F)F)c(Cl)cc3[nH]2)c2cc(C#N)ccc2c1=O` [Compound 245, 2-[4-[[6-chloro-5-(2,2-difluoroethoxy)-1H-benzimidazol-2-yl]methyl]-6-cyano-1-oxo-phthalazin-2-yl]-N-methylsulfonyl-acetamide], the values for the EC50 in assay [1] and in assay [2] were 14.3 nM and 609 nM, respectively.
Turning to `N#Cc1cc2[nH]c(Cc3nn(CC(=O)NCC4CC(F)(F)C4)c(=O)c4ccccc34)nc2cc1OCC(F)F` [Compound 232, 2-[4-[[6-cyano-5-(2,2-difluoroethoxy)-1H-benzimidazol-2-yl]methyl]-1-oxo-phthalazin-2-yl]-N-[(3,3-difluorocyclobutyl)methyl]acetamide], the EC50 worked out at 16.3 nM in assay [1] and 122 nM in assay [2].
In the case of `CN1CCCC(Cn2nc(Cc3nc4cc(Cl)c(OC(F)(F)F)cc4[nH]3)c3ccccc3c2=O)C1` (stereo not shown) [Compound 39, 4-[[6-chloro-5-(trifluoromethoxy)-1H-benzimidazol-2-yl]methyl]-2-[(1-methyl-3-piperidyl)methyl]phthalazin-1-one], the figures for the EC50 in assay [1] and in assay [2] were ≥ 19900 nM and 13400 nM, respectively.
